Assay [1] has as its system SVZ cells. The assay can be described thus: Single cell calcium imaging (SCCI) of oligodendrocytic differentiation. It is filed as cell-based, mouse. The settings on record: 7 days. As for the experimental part:
To investigate the influence of Hp on oligodendrocytic differentiation, SVZ neurospheres were allowed to develop for 7 days Hp (100 nm, 1 μM), in serum free medium devoid of growth factor at 37° C.
To determine the functional differentiation pattern of SVZ cells, we analyzed the variations of intracellular calcium-free levels ([Ca^2+]i) in single cells following stimulation with 50 mM KCl, 100 μM histamine (Sigma-Aldrich, St. Louis, Mo. USA) and 0.1 U/ml thrombin (Sigma-Aldrich) stimulation. KCl depolarization causes an increase in [Ca^2+]i in neurons, whereas stimulation with histamine leads to an increase in [Ca^2+]i in stem/progenitor cells, while thrombin leads to an increase in [Ca^2+]i in oligodendrocytes. SVZ cultures were loaded for 40 minutes with 5 μM Fura—2/AM (Molecular Probes, Carlsbad, Calif., USA), 0.1% fatty acid-free BSA, and 0.02% pluronic acid F-127 (Molecular Probes) in Krebs solution (132 mM NaCl, 4 mM KCl, 1.4 mM MgCl2, 1 mM CaCl2, 6 mM glucose, 10 mM HEPES, pH 7.4), in an incubator with 5% CO2 and 95% atmospheric air at 37° C. After a 10-minute postloading period at room temperature (RT) in the same medium without Fura-2/AM and pluronic acid, to obtain a complete hydrolysis of the probe, the glass coverslip was mounted on an RC-20 chamber in a PH3 platform (Warner Instruments, Hamden, Conn., USA) on the stage of an inverted fluorescence microscope (Axiovert 200, Carl Zeiss). […] The variations of [Ca^2+]i were evaluated by quantifying the ratio of the fluorescence emitted at 510 nm following alternate excitation (750 msec) at 340 and 380 nm, using a Lambda DG4 apparatus (Sutter Instrument, Novato, Calif., USA) and a 510 nm band-pass filter (Carl Zeiss) before fluorescence acquisition with a x40 objective and a CoolSNAP digital camera (Roper Scientific, Trenton, N.J., USA). […] KCl, histamine, and thrombin peaks given by the normalized ratios of fluorescence at 340/380 nm, at the proper time periods, were used to calculate the ratios of the responses to histamine/KCl (Hist/KCl-neuronal-like profile) and to thrombin/histamine (Throm/Hist-oligodendrocytic-like profile).
Fluorescence images were recorded using an LSM 510 Meta confocal microscope or an Axioskop 2 Plus fluorescence microscope (both from Carl Zeiss). […] Percentages of TUNEL or BrdU immunoreactive cells in SVZ cell cultures were calculated from cell counts in five independent microscopic fields in each coverslip with a x40 objective (approximately 200 cells per field). […] For SCCl experiments, the percentage of oligodendrocytic-like responding cells (with a Thromb/Hist ratio above 1.3) was calculated on the basis of one microscopic field per coverslip, containing approximately 100 cells (magnification, ×40). […]

Assay [2] deals with SVZ cells. As to the kind of experiment: SVZ neurosphere forming assay (primary neurospheres). It is filed as cell-based, mouse. As for the experimental part:
Neurosphere forming and self-renewal assays were performed on SVZ cells seeded at clonal density, 2500 cells per well in 24-well cell culture plates in SFM containing 5 ng/ml EGF and 2.5 ng/ml FGF-2 and supplemented or not (control) with 1 μM Hp or 50 ng.ml^−1 hepatocyte growth factor (carrier free recombinant human HGF, R&D Systems, Lille, France). After 6 days, the numbers of primary neurospheres were determined. For self-renewal assay, neurospheres were collected, dissociated as single cells and seeded in SFM containing 5 ng/ml EGF and 2.5 ng/ml FGF-2 in 24 well plates. After 6 days, the number of secondary neurospheres was counted.
Fluorescence images were recorded using an LSM 510 Meta confocal microscope or an Axioskop 2 Plus fluorescence microscope (both from Carl Zeiss). In all experiments, measurements were performed in the border of SVZ neurospheres where migrating cells form a cell monolayer. For the SVZ neurosphere forming and self-renewal assays the experiments were replicated in five independent culture preparations and each experimental condition was assayed in four different coverslips. For the remaining experiments, each condition was assayed in three different coverslips, and except where otherwise specified, the experiments were replicated in three independent culture preparations. Percentages of TUNEL or BrdU immunoreactive cells in SVZ cell cultures were calculated from cell counts in five independent microscopic fields in each coverslip with a x40 objective (approximately 200 cells per field). Software used was Axiovision, release 4.6 (Carl Zeiss). For SCCl experiments, the percentage of oligodendrocytic-like responding cells (with a Thromb/Hist ratio above 1.3) was calculated on the basis of one microscopic field per coverslip, containing approximately 100 cells (magnification, ×40).
Neural stem-like cells are characterized in vitro by both their capacity to give rise to neurospheres and to self-renew when cultured in the presence of mitogens.

Take `CC(C)C[C@H](NC(=O)[C@H](Cc1ccccc1)NC(=O)[C@H](CCCCN)NC(=O)[C@H](Cc1ccccc1)NC(=O)[C@H](CC(N)=O)NC(=O)[C@@H](NC(=O)[C@@H]1CCCN1)C(C)C)C(=O)N[C@@H](CO)C(=O)N[C@@H](Cc1cnc[nH]1)C(=O)O` [Hp, PVNFKFLSH]: the “cells responding with a Throm/Hist ratio above 1.3 (oligodendrocyte-like responding cells)” value is listed as 15.84±3.85% in the assay with SVZ cells [1] (Hp 100 nM, 9 coverslips); 14.51±4.09% in the assay on SVZ cells [1] (Hp 1 μM, 12 coverslips); “around 15%” with SVZ cells [1] (Hp treatment (100 nM or 1 μM), rounded). Moreover, the “decrease of the number of primary neurospheres” value in the assay with SVZ cells [2] (1 μm Hp during 6 days) is on record as 15%. Moreover, the “number of primary neurospheres (control 100%)” value in the assay on SVZ cells [2] (Hp 1 μM, 6 days, SFM with 5 ng/ml EGF and 2.5 ng/ml FGF-2) is reported as 85.13±3.86%.
